Earlier results in patent US11083734B2 (ACUCORT AB, priority 2014, dated 2021).

How the values were obtained:
[1] = humans, oral administration, literature and product information

| solubility in anhydrous ethanol | solubility in water | t(max) [1] [h] | SMILES |
| --- | --- | --- | --- |
| sparingly soluble | practically insoluble | ~1.5 | C[C@@H]1C[C@H]2[C@@H]3CCC4=CC(=O)C=C[C@]4(C)[C@@]3(F)[C@@H](O)C[C@]2(C)[C@@]1(O)C(=O)CO [dexamethasone] |
| – | freely soluble | – | C[C@@H]1C[C@H]2[C@@H]3CCC4=CC(=O)C=C[C@]4(C)[C@@]3(F)[C@@H](O)C[C@]2(C)[C@@]1(O)C(=O)COP(=O)(O)O [dexamethasone sodium phosphate] |
